Test results as given in patent publication US10874643B2 (priority 2015, dated 2020).
Where a name gives a salt, the structure may show the parent alone. Read-outs that look alike come from different tables or passages of the source.

Experiments:
scn1Lab mutants [1] = experiment: Locomotion tracking assay of seizure behavior (96-well format); settings: for effect on locomotor seizure behavior: 1 mM; for effect on locomotor seizure behavior / inhibition of spontaneous seizure behavior, initial library screen / convulsive/seizure behavior with antihistamines: 5 dpf; for effect on locomotor seizure behavior / inhibition of spontaneous seizure behavior, initial library screen: 6-12 fish; for 5HT library first-pass locomotion screen: 250 μM, 6 fish per drug, positive hit = reduction in mean swim velocity ≥38%; for swim activity / seizure behavior, third evaluation: 100 μM, 10 fish per trial; for seizure-induced swim activity and mean velocity, re-test on separate clutch: 667, 67 and 6.7 μM; for inhibition of spontaneous seizure behavior, initial library screen: 667 μM; for convulsive/seizure behavior with antihistamines: shelf screen at 0.1-1 mM
scn1Lab mutants [2] = type: in vivo, zebrafish; settings: for forebrain electrographic seizure activity in the same mutants after the locomotion assay: 100 μM, mutant embedded in agar; for fish in which epileptiform activity became more frequent following exposure: 1 mM
wild-type larvae = experiment: DMSO toxicity in wild-type larvae; settings: dilutions between 0.01 and 100%; n=12 fish per concentration
[3] = 1 mM bath applied, agar-embedded mutants 5-6 dpf, seven fish per drug, vs baseline
[4] = 1 mM bath applied, 5-6 dpf, seven fish per drug, vs baseline

CC(=O)Nc1nnc(S(N)(=O)=O)s1 [Acetazolamide]
effect on locomotor seizure behavior (scn1Lab mutants [1]): increased seizure behavior

COc1ccccc1N1CCN(CCN2C(=O)CC3(CCCC3)CC2=O)CC1 [BMY 7378, 8-(2-[4-(2-methoxyphenyl)-1-piperazinyl]ethyl)-8-azaspiro[4.5]decane-7,9-dione]
5HT library first-pass locomotion screen (scn1Lab mutants [1]): positive hits

CN1CCC(c2c[nH]c3ccc(O)cc23)CC1 [BRL-54443, 3-(1-methylpiperidin-4-yl)-1H-indol-5-ol]
5HT library first-pass locomotion screen (scn1Lab mutants [1]): positive hits

C#CCN(C)CCCOc1ccc(Cl)cc1Cl [Clorgiline]
swim activity / seizure behavior, third evaluation (scn1Lab mutants [1]): reduced swim activity
seizure-induced swim activity and mean velocity, re-test on separate clutch (scn1Lab mutants [1]): effective in reducing seizure-induced swim activity and mean velocity
forebrain electrographic seizure activity in the same mutants after the locomotion assay (scn1Lab mutants [2]): electrographic seizure events were still observed

C[S+](C)[O-] [DMSO]
lethal DMSO concentration (wild-type larvae): > 25%

C[C@]12N[C@H](Cc3ccccc31)c1ccccc12 [MK-801]
epileptic seizure events in sample EEG traces (scn1Lab mutants [2]; zebrafish, in vivo): no suppression of epileptic events

NCC(O)CC(=O)O (centres unmarked) [aminohydroxybutyric acid]
inhibition of spontaneous seizure behavior, initial library screen (scn1Lab mutants [1]): ineffective

CNCC[C@@H](Oc1ccccc1C)c1ccccc1 [atomoxetine]
5HT library first-pass locomotion screen (scn1Lab mutants [1]): positive hits

O=C(CCCl)NCc1ccccc1 [beclamide]
inhibition of spontaneous seizure behavior, initial library screen (scn1Lab mutants [1]): ineffective

O=C1CC2(CCCC2)CC(=O)N1CCCCN1CCN(c2ncccn2)CC1 [buspirone]
5HT library first-pass locomotion screen (scn1Lab mutants [1]): positive hits

NC(=O)N1c2ccccc2C=Cc2ccccc21 [carbamazepine]
Epileptiform event frequency (burst frequency; interictal- and ictal-like discharges) (scn1Lab mutants [2]; [3]): increased burst frequency
fish in which epileptiform activity became more frequent following exposure (scn1Lab mutants [2]; seven fish per drug): 2 of 7

CN1C(=O)CN=C(c2ccccc2)c2cc(Cl)ccc21 [diazepam]
effect on locomotor seizure behavior (scn1Lab mutants [1]): effectively inhibited seizure behavior
Epileptiform event frequency (burst frequency; interictal- and ictal-like discharges) (scn1Lab mutants [2]; zebrafish, in vivo): reduced
fractional time spent seizing (scn1Lab mutants [2]; zebrafish, in vivo): reduced

CCC1(C)CC(=O)NC1=O (centres unmarked) [ethosuximide]
effect on locomotor seizure behavior (scn1Lab mutants [1]): increased seizure behavior
fish in which epileptiform activity became more frequent following exposure (scn1Lab mutants [2]; seven fish per drug): 4 of 7

CC(=O)[C@H]1CC[C@H]2[C@@H]3CC[C@H]4C[C@](C)(O)CC[C@]4(C)[C@H]3CC[C@]12C [ganaxolone]
effect on locomotor seizure behavior (scn1Lab mutants [1]): effective

CC(C)CCCC(C)NC(C)C (centres unmarked) [iproheptine]
convulsive/seizure behavior with antihistamines (scn1Lab mutants [1]): failed to suppress convulsive behavior

Nc1nnc(-c2cccc(Cl)c2Cl)c(N)n1 [lamotrigine]
effect on locomotor seizure behavior (scn1Lab mutants [1]): had no effect

CC[C@@H](C(N)=O)N1CCCC1=O [levetiracetam]
effect on locomotor seizure behavior (scn1Lab mutants [1]): had no effect

C[C@H]1CNCCc2ccc(Cl)cc21 [lorcaserin]
5HT library first-pass locomotion screen (scn1Lab mutants [1]): positive hits

CN1CCc2c(c3ccccc3n2Cc2ccccc2)C1.CN1CCc2c(c3ccccc3n2Cc2ccccc2)C1.O=S(=O)(O)c1cccc2c(S(=O)(=O)O)cccc12 [mebhydrolin napthalenesulfonate]
convulsive/seizure behavior with antihistamines (scn1Lab mutants [1]): failed to suppress convulsive behavior

CNS(=O)(=O)CCc1ccc2[nH]cc(C3CCN(C)CC3)c2c1 [naratriptap]
5HT library first-pass locomotion screen (scn1Lab mutants [1]): positive hits

CN1CCC(=C2c3ccccc3Sc3ccccc32)CC1 [pimethixene maleate]
convulsive/seizure behavior with antihistamines (scn1Lab mutants [1]): failed to suppress convulsive behavior

[Br-].[K+] [potassium bromide]
effect on locomotor seizure behavior (scn1Lab mutants [1]): effectively inhibited seizure behavior
fractional time spent seizing (scn1Lab mutants [2]; [4]): reduced
Epileptiform event frequency (burst frequency; interictal- and ictal-like discharges) (scn1Lab mutants [2]; [3]): reduced

CN(C)CCc1c[nH]c2ccc(Cn3cncn3)cc12 [rizatriptan]
5HT library first-pass locomotion screen (scn1Lab mutants [1]): positive hits

CC(C)(C)C(O)/C=C/c1ccc2c(c1)OCO2 (centres unmarked) [stiripentol]
effect on locomotor seizure behavior (scn1Lab mutants [1]): effectively inhibited seizure behavior
fractional time spent seizing (scn1Lab mutants [2]; [4]): reduced
Epileptiform event frequency (burst frequency; interictal- and ictal-like discharges) (scn1Lab mutants [2]; [3]): reduced

CNS(=O)(=O)Cc1ccc2[nH]cc(CCN(C)C)c2c1 [sumatriptan]
5HT library first-pass locomotion screen (scn1Lab mutants [1]): positive hits

CCNC1(c2cccs2)CCCCC1=O (centres unmarked) [tiletamine]
inhibition of spontaneous seizure behavior, initial library screen (scn1Lab mutants [1]): ineffective

Cc1ccc(C(=O)C(C)CN2CCCCC2)cc1 (centres unmarked) [tolperisone]
swim activity / seizure behavior, third evaluation (scn1Lab mutants [1]): reduced swim activity
seizure-induced swim activity and mean velocity, re-test on separate clutch (scn1Lab mutants [1]): effective in reducing seizure-induced swim activity and mean velocity
forebrain electrographic seizure activity in the same mutants after the locomotion assay (scn1Lab mutants [2]): electrographic seizure events were still observed

O=c1n(CCCN2CCN(c3cccc(Cl)c3)CC2)nc2ccccn12 [trazodone]
5HT library first-pass locomotion screen (scn1Lab mutants [1]): positive hits
toxicity in the locomotion assay (scn1Lab mutants [1]; 750 μM): toxic
inhibition of spontaneous seizure behavior, concentration-response re-test (scn1Lab mutants [1]; concentrations between 100 and 750 μM, 30 or 90 min exposure, threshold ≥40%): robust inhibition of spontaneous seizure behavior
epileptic seizure events in sample EEG traces (scn1Lab mutants [2]; FIG. 12B): suppression of epileptic seizure events
EEG activity (scn1Lab mutants [2]; concentrations between 250 and 500 μM, n=15): effectively suppressed EEG activity

COc1ccccc1N1CCN(CCCNc2cc(=O)n(C)c(=O)n2C)CC1 [urapidil]
5HT library first-pass locomotion screen (scn1Lab mutants [1]): positive hits

COc1ccc(C(CN(C)C)C2(O)CCCCC2)cc1 (centres unmarked) [venlafaxine]
5HT library first-pass locomotion screen (scn1Lab mutants [1]): positive hits

C=CC(N)CCC(=O)O (centres unmarked) [vigabatrin]
Epileptiform event frequency (burst frequency; interictal- and ictal-like discharges) (scn1Lab mutants [2]; [3]): increased burst frequency
fish in which epileptiform activity became more frequent following exposure (scn1Lab mutants [2]; seven fish per drug): 6 of 7

O=C1Cc2cc(CCN3CCN(c4nsc5ccccc45)CC3)c(Cl)cc2N1 [ziprasidone]
5HT library first-pass locomotion screen (scn1Lab mutants [1]): positive hits

CN(C)CCc1c[nH]c2ccc(C[C@H]3COC(=O)N3)cc12 [zolmitriptan]
5HT library first-pass locomotion screen (scn1Lab mutants [1]): positive hits
